Molecular target: NgDapB (4-hydroxy-tetrahydrodipicolinate reductase from Neisseria gonorrhoeae) (Neisseria gonorrhoeae, UniProt Q5F5Y7)
Assay: isothermal titration calorimetry
Assay type: binding

NgDapB (4-hydroxy-tetrahydrodipicolinate reductase from Neisseria gonorrhoeae), sequence (Q5F5Y7 whole entry): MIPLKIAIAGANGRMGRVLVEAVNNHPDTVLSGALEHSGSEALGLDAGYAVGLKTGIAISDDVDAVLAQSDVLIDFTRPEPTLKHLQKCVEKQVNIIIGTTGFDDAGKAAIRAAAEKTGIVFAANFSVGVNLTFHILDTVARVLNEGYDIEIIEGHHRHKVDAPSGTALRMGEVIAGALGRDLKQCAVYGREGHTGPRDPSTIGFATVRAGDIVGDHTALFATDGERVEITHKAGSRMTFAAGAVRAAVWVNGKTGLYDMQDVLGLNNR

SMILES | Kd
O=C(O)c1cccc(C(=O)O)n1 [2,6-PDC, 2,6-pyridine dicarboxylic acid] | 21.2 ± 0.7 µM
NC(=O)C1=CN([C@@H]2O[C@H](COP(=O)(O)OP(=O)(O)OC[C@H]3O[C@@H](n4cnc5c(N)ncnc54)[C@H](O)[C@@H]3O)[C@@H](O)[C@H]2O)C=CC1 [NADH] | 2.5 ± 0.5 µM
NC(=O)C1=CN([C@@H]2O[C@H](COP(=O)(O)OP(=O)(O)OC[C@H]3O[C@@H](n4cnc5c(N)ncnc54)[C@H](OP(=O)(O)O)[C@@H]3O)[C@@H](O)[C@H]2O)C=CC1 [NADPH] | 4.8 ± 0.6 µM

— paper PMC6192261 (Biochemical and biophysical research communications, 2018)
